Read-outs that look alike come from different tables or passages of the source.
How the values were obtained:
Experiment in all cases: biochemical
Set-up in all cases: Thermal shift (DSF, SYPRO Orange) Tm shift of recombinant kinase domains at 10 uM compound
[1] = target: T1, STLK3 (Homo sapiens, UniProt Q9UEW8)
T1 construct: gene STK39

[2] = target: T2, DRAK2 (Homo sapiens, UniProt O94768)
T2 construct: gene STK17B
T2 sequence (O94768 1-372): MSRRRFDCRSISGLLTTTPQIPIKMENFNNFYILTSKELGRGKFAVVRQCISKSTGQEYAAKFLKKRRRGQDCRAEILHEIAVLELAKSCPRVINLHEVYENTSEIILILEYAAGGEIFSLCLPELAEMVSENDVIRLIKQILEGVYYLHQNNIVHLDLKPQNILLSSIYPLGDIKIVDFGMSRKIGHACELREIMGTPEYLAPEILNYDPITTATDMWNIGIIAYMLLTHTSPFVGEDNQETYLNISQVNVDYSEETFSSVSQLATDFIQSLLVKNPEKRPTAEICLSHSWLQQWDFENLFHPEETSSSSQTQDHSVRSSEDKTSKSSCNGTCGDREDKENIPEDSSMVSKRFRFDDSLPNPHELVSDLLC

[3] = target: CAMK1G (Homo sapiens, UniProt Q96NX5)
CAMK1G, sequence (Q96NX5 whole entry): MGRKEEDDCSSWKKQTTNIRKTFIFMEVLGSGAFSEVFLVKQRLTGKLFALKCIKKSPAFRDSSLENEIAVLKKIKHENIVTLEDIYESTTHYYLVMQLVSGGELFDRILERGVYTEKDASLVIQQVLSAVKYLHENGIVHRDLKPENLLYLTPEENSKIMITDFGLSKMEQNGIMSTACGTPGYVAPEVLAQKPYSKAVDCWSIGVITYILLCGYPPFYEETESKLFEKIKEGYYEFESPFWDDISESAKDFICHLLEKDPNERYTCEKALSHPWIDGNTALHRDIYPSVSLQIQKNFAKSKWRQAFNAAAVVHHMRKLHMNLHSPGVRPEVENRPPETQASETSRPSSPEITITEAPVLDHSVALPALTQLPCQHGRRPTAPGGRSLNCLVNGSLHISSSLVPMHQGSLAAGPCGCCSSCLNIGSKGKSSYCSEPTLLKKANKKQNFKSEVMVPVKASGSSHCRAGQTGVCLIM

[4] = target: PAK4 (Homo sapiens, UniProt O96013)
PAK4, sequence (O96013 whole entry): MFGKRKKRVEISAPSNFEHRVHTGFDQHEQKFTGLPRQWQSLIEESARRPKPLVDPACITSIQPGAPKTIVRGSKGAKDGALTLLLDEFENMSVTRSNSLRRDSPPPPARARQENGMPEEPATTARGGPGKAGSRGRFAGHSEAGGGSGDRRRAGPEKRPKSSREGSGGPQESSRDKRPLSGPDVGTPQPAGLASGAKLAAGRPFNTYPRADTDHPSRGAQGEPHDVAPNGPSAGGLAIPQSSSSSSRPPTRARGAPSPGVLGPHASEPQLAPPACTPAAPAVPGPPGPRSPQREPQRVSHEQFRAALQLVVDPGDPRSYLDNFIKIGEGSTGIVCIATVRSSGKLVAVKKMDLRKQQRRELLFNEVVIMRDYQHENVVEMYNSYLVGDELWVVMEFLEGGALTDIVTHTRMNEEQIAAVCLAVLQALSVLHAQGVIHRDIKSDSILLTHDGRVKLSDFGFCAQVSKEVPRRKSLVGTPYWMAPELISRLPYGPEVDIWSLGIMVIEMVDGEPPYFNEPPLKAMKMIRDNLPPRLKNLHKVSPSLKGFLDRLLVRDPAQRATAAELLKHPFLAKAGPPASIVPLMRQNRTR

[5] = target: T3, GPRK5 (Homo sapiens, UniProt P34947)
T3 construct: gene GRK5
T3 sequence (P34947 whole entry): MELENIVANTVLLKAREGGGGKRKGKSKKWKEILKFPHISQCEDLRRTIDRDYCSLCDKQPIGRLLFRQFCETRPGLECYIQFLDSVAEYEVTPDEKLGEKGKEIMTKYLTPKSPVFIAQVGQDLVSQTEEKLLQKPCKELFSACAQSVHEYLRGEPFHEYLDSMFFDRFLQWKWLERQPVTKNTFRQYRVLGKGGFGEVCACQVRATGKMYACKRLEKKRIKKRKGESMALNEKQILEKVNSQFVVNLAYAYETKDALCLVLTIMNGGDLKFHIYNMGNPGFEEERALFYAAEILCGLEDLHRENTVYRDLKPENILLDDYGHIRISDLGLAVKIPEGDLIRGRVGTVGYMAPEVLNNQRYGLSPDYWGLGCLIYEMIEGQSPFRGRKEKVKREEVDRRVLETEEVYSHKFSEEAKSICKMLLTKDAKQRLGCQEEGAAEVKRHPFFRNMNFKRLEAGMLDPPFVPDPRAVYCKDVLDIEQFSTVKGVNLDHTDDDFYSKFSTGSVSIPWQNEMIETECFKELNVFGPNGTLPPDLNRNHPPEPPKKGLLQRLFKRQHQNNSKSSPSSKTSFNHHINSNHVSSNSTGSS

[6] = target: T4, DYRK2 (Homo sapiens, UniProt Q92630)
T4 sequence (Q92630 1-601): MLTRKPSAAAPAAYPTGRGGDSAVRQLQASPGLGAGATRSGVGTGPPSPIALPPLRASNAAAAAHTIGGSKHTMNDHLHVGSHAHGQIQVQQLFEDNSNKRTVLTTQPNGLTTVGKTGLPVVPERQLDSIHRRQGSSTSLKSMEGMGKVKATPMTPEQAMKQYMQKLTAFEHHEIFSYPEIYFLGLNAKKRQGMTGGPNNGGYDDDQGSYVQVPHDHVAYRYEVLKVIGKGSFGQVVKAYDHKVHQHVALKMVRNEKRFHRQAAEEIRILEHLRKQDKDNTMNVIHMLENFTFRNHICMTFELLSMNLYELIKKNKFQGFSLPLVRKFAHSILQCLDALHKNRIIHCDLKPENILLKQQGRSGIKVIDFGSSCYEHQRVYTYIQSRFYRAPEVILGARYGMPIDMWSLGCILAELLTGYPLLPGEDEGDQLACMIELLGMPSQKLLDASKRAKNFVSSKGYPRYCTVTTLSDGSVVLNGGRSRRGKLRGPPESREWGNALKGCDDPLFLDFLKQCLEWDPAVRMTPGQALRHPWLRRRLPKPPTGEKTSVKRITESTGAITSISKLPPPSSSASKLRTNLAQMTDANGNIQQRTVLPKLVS

[7] = target: CSNK1E (Homo sapiens, UniProt P49674)
CSNK1E, sequence (P49674 whole entry): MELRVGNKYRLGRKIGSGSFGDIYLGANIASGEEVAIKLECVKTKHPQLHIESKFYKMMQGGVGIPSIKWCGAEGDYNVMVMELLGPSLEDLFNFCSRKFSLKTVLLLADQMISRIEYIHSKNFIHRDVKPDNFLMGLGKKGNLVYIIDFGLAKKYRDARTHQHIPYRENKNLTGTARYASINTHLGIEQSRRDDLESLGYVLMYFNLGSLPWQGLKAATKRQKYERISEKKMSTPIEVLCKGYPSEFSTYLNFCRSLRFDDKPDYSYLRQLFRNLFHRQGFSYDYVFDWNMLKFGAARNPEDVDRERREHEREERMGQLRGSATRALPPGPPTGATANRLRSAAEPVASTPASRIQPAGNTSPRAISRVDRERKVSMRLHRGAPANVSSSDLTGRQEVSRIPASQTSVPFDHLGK

[8] = target: T5, BRPF1 (Homo sapiens, UniProt P55201)
T5 sequence (P55201 1-1214): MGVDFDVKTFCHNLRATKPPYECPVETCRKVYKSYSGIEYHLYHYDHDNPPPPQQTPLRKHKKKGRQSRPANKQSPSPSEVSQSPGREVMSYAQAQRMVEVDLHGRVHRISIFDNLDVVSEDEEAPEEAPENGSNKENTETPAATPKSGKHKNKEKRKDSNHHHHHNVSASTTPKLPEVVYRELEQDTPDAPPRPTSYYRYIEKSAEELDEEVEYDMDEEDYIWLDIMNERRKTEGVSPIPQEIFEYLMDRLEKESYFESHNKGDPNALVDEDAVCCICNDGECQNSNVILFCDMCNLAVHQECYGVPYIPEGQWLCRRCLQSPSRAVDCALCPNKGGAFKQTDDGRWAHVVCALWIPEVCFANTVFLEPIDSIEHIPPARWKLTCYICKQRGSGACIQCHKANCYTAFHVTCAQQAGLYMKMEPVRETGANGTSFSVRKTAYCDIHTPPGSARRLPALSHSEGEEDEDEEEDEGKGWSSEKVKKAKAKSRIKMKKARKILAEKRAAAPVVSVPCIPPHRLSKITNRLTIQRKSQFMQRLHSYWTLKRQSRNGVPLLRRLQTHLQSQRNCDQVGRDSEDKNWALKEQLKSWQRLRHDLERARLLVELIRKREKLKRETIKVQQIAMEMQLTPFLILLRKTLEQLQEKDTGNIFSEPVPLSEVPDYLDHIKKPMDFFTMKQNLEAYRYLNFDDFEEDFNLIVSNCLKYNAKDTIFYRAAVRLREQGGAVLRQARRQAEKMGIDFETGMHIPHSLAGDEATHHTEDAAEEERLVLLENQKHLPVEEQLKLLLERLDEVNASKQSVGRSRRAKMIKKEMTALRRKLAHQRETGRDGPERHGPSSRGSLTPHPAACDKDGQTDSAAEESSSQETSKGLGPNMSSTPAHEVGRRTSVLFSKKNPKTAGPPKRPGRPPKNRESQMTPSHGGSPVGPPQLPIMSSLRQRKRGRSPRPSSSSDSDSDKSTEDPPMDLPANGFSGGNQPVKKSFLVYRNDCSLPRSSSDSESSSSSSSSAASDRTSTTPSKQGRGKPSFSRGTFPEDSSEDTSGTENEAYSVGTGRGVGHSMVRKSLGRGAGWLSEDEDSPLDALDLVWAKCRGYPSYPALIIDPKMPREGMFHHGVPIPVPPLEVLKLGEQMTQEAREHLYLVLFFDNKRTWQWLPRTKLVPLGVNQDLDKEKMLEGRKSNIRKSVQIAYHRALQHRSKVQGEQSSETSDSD

For CC(C)Nc1ccc2cnn(-c3cncc(-c4ccc(C(=O)O)cc4)n3)c2c1 [compound 2, 2], the ΔTm at 10 µM ([1]; read-out: 2) was 1 °C, the ΔTm at 10 µM ([2]; read-out: 2) was 3 °C and the ΔTm at 10 µM ([3]; read-out: 2) was 2 °C. The ΔTm at 10 µM ([4]; read-out: 2) was 3 °C, the ΔTm at 10 µM ([5]; read-out: 2) was 6 °C and the ΔTm at 10 µM ([6]; read-out: 2) was 12 °C. For the same compound, the ΔTm at 10 µM ([7]; read-out: 2) was 2 °C and the ΔTm at 10 µM ([8]; read-out: 2) was 2 °C.

COc1ccc(OC(C)C)cc1Nc1cncc(-c2ccc(C(=O)O)cc2)n1 [7c] showed a ΔTm at 10 µM ([1]; read-out: 7c) of 0 °C, a ΔTm at 10 µM ([2]; read-out: 7c) of 0 °C and a ΔTm at 10 µM ([3]; read-out: 7c) of -1 °C. For the same compound, the ΔTm at 10 µM ([4]; read-out: 7c) was 1 °C, the ΔTm at 10 µM ([5]; read-out: 7c) was 4 °C and the ΔTm at 10 µM ([6]; read-out: 7c) was 9 °C. It also gave a ΔTm at 10 µM ([7]; read-out: 7c) of 1 °C and a ΔTm at 10 µM ([8]; read-out: 7c) of 0 °C.

CC(C)Oc1ccc2ccn(-c3cncc(-c4ccc(C(=O)O)cc4)n3)c2c1 [6c] gave a ΔTm at 10 µM ([1]; read-out: 6c) of 0 °C, a ΔTm at 10 µM ([2]; read-out: 6c) of 2 °C and a ΔTm at 10 µM ([3]; read-out: 6c) of 0 °C. For the same compound, the ΔTm at 10 µM ([4]; read-out: 6c) was 3 °C, the ΔTm at 10 µM ([5]; read-out: 6c) was 4 °C and the ΔTm at 10 µM ([6]; read-out: 6c) was 11 °C. The ΔTm at 10 µM ([7]; read-out: 6c) was 3 °C and the ΔTm at 10 µM ([8]; read-out: 6c) was -1 °C.
